Measured values as given in patent US20230062100A1, “SUBSTITUTED AMINOQUINOLONES AS DGKALPHA INHIBITORS FOR IMMUNE ACTIVATION” (Bayer Aktiengesellschaft, priority 2019, published 2023).

Target: DGKα (Homo sapiens, UniProt P23743)
Experiment: Human DGKα kinase activity inhibition assay (ADP-Glo)
Assay type: biochemical
Conditions: in vitro human DGKα kinase activity inhibition assay
Protocol: Human DGKα inhibitory activity of compounds of the present invention was quantified employing the human DGKα kinase activity assay as described in the following paragraphs. In essence, the enzyme activity was measured by quantification of the adenosine-di-phosphate (ADP) generated as a co-product of the enzyme reaction via the “ADP-Glo™ Kinase Assay” kit from the company Promega. This detection system works as follows: In a first step the ATP not consumed in the kinase reaction is quantitatively converted to cAMP employing an adenylate cyclase (“ADP-Glo-reagent”), then the adenylate cyclase is stopped and the ADP generated in the kinase reaction converted to ATP, which subsequently generates in a luciferase-based reaction a glow-luminescence signal (“Kinase Detection Reagent”). C-terminally FLAG-tagged, recombinant full-length human DGKα (expressed in baculovirus infected insect cells, purified using anti-Flag pulldown and size exclusion chromatography as described below, DGKα_hu_1) was used as enzyme. As substrate for the kinase 1,2-dioleoyl-sn-glycerol, reconstituted in octyl-β-D-glucopyranoside micelles, was used. For the preparation of the micelles, 1 volume of a 16.1 mM solution of 1,2-dioleoyl-sn-glycerol (Avanti, Cat. #O8001-25G) in chloroform was slowly evaporated using a nitrogen stream. Subsequently, 22.55 volumes of a 510 mM solution of octyl-β-D-glucopyranoside (Sigma-Aldrich, Cat. #O8001-10G) in 50 mM MOPS buffer (pH 7.4) were added, and the mixture was sonicated in an ultrasonic bath for 20 s. Then 35 volumes of 50 mM MOPS buffer (pH 7.4) were added to yield a solution of 0.28 mM 1,2 dioleoyl-sn-glycerol and 200 mM octyl-β-D-glucopyranoside, which was aliquoted, flash-frozen in liquid nitrogen, and stored at −20° C. until use. For each experiment, a fresh aliquot was quickly thawed and diluted 24-fold with aqueous assay buffer (described below) containing 95.7 μM adenosine triphosphate (Promega) to yield a 1.67-fold concentrated substrate solution. For the assay 50 nl of a 100-fold concentrated solution of the test compound in dimethyl sulfoxide (DMSO, Sigma) was pipetted into either a white 1536-well or a white low-volume 384-well microtiter plate (both Greiner Bio-One, Frickenhausen, Germany). […] The concentration of DGK a was adjusted depending of the activity of the enzyme lot and was chosen appropriate to have the assay in the linear range, a typical concentration is about 0.1 nM. The reaction was stopped by the addition of 2.5 μl of “ADP-Glo-reagent” (1 to 1.5 diluted with water) and the resulting mixture was incubated at 22° C. for 1 h to convert the ATP not consumed in the kinase reaction completely to cAMP. […] The amount of emitted light was taken as a measure for the amount of ADP generated and thereby for the activity of the DGKα.

Sequence of DGKα (P23743 with tags, fused parts or gaps): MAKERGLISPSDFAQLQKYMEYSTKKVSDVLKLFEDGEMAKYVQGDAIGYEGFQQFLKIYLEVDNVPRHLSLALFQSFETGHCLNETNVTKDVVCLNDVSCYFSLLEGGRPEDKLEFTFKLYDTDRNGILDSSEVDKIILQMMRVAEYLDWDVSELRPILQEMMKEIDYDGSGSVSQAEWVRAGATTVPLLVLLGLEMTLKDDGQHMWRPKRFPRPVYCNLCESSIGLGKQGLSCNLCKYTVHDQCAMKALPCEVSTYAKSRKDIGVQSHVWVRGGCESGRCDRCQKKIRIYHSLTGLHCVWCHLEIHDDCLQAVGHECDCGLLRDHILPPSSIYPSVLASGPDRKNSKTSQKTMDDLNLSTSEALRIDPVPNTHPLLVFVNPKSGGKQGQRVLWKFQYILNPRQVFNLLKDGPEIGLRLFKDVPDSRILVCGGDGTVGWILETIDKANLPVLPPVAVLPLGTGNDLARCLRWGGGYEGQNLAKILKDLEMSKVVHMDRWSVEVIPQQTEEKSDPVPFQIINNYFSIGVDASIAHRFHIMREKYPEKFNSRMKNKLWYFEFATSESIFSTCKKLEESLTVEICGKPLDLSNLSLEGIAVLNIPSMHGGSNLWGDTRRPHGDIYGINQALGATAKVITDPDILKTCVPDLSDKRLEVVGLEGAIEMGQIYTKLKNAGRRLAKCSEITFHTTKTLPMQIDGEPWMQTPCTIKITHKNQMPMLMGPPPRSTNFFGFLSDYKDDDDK

| IC50 [nM] | Compound |
| --- | --- |
| 4.4 | Cn1c(=O)c(C#N)c(N2CCC(Sc3ccccc3)CC2)c2ccc(Br)cc21 [Example 55, 7-bromo-1-methyl-2-oxo-4-[4-(phenylsulfanyl)piperidin-1-yl]-1,2-dihydroquinoline-3-carbonitrile] |
| 17 | Cn1c(=O)c(C#N)c(N2CCC(Oc3ccc(Cl)cc3)CC2)c2ccc(Br)cc21 [Example 57, 7-bromo-4-[4-(4-chlorophenoxy)piperidin-1-yl]-1-methyl-2-oxo-1,2-dihydroquinoline-3-carbonitrile] |
| 18 | Cn1c(=O)c(C#N)c(N2CCC(Oc3ccc(C(F)(F)F)cc3)CC2)c2ccc(Br)cc21 [Example 59, 7-bromo-1-methyl-2-oxo-4-{4-[4-(trifluoromethyl)phenoxy]piperidin-1-yl}-1,2-dihydroquinoline-3-carbonitrile] |
| 27 | Cn1c(=O)c(C#N)c(N2CCC(Oc3cccc(Cl)c3)CC2)c2ccc(Br)cc21 [Example 60, 7-bromo-4-[4-(3-chlorophenoxy)piperidin-1-yl]-1-methyl-2-oxo-1,2-dihydroquinoline-3-carbonitrile] |
| 7.3 | COc1ccc2c(N3CCC(Oc4ccc(Cl)cc4)CC3)c(C#N)c(=O)n(C)c2c1 [Example 65, 4-[4-(4-chlorophenoxy)piperidin-1-yl]-7-methoxy-1-methyl-2-oxo-1,2-dihydroquinoline-3-carbonitrile] |
| 29 | Cn1c(=O)c(C#N)c(N2CCC(Sc3ccccc3)CC2)c2ccc(C3CC3)cc21 [Example 68, 7-cyclopropyl-1-methyl-2-oxo-4-[4-(phenylsulfanyl)piperidin-1-yl]-1,2-dihydroquinoline-3-carbonitrile] |
| 16 | Cn1c(=O)c(C#N)c(N2CCC(Oc3ccc(Cl)cc3)CC2)c2ccc(C3COC3)cc21 [Example 72, 4-[4-(4-chlorophenoxy)piperidin-1-yl]-1-methyl-7-(oxetan-3-yl)-2-oxo-1,2-dihydroquinoline-3-carbonitrile] |
| 3.5 | COCCc1ccc2c(N3CCC(Oc4cccc(Cl)c4)CC3)c(C#N)c(=O)n(C)c2c1 [Example 74, 4-[4-(3-chlorophenoxy)piperidin-1-yl]-7-(2-methoxyethyl)-1-methyl-2-oxo-1,2-dihydroquinoline-3-carbonitrile] |
| 3.7 | COCCc1ccc2c(N3CCC(Oc4ccc(Cl)cc4)CC3)c(C#N)c(=O)n(C)c2c1 [Example 75, 4-[4-(4-chlorophenoxy)piperidin-1-yl]-7-(2-methoxyethyl)-1-methyl-2-oxo-1,2-dihydroquinoline-3-carbonitrile] |

More lines, now with the values behind:

| Compound | IC50 [nM] |
| --- | --- |
| Cn1c(=O)c(C#N)c(N2CCC(Oc3ccccc3)CC2)c2ccc(Br)cc21 [Example 54, 7-bromo-1-methyl-2-oxo-4-(4-phenoxypiperidin-1-yl)-1,2-dihydroquinoline-3-carbonitrile] | 5.8 |
| Cn1c(=O)c(C#N)c(N2CCC(Oc3ccc(F)cc3)CC2)c2ccc(Br)cc21 [Example 56, 7-bromo-4-[4-(4-fluorophenoxy)piperidin-1-yl]-1-methyl-2-oxo-1,2-dihydroquinoline-3-carbonitrile] | 9.9 |
| Cn1c(=O)c(C#N)c(N2CCC(Oc3ccc(OC(F)(F)F)cc3)CC2)c2ccc(Br)cc21 [Example 58, 7-bromo-1-methyl-2-oxo-4-{4-[4-(trifluoromethoxy)phenoxy]piperidin-1-yl}-1,2-dihydroquinoline-3-carbonitrile] | 19 |
| Cn1c(=O)c(C#N)c(N2CCC(Oc3cccc(OC(F)(F)F)c3)CC2)c2ccc(Br)cc21 [Example 61, 7-bromo-1-methyl-2-oxo-4-{4-[3-(trifluoromethoxy)phenoxy]piperidin-1-yl}-1,2-dihydroquinoline-3-carbonitrile] | 22 |
| Cn1c(=O)c(C#N)c(N2CCC(Oc3ccc(OC(F)(F)F)cc3)CC2)c2ccc(O)cc21 [Example 62, 7-hydroxy-1-methyl-2-oxo-4-{4-[4-(trifluoromethoxy)phenoxy]piperidin-1-yl}-1,2-dihydroquinoline-3-carbonitrile] | 2.3 |
| Cn1c(=O)c(C#N)c(N2CCC(Oc3ccc(OC(F)(F)F)cc3)CC2)c2ccc(F)cc21 [Example 63, 7-fluoro-1-methyl-2-oxo-4-{4-[4-(trifluoromethoxy)phenoxy]piperidin-1-yl}-1,2-dihydroquinoline-3-carbonitrile] | 12 |
| Cn1c(=O)c(C#N)c(N2CCC(Oc3ccc(OC(F)(F)F)cc3)CC2)c2ccc(Cl)cc21 [Example 64, 7-chloro-1-methyl-2-oxo-4-{4-[4-(trifluoromethoxy)phenoxy]piperidin-1-yl}-1,2-dihydroquinoline-3-carbonitrile] | 16 |
| COc1ccc2c(N3CCC(Oc4ccc(C(F)(F)F)cc4)CC3)c(C#N)c(=O)n(C)c2c1 [Example 66, 7-methoxy-1-methyl-2-oxo-4-{4-[4-(trifluoromethyl)phenoxy]piperidin-1-yl}-1,2-dihydroquinoline-3-carbonitrile] | 14 |
| Cc1ccc2c(N3CCC(Oc4ccc(OC(F)(F)F)cc4)CC3)c(C#N)c(=O)n(C)c2c1 [Example 67, 1,7-dimethyl-2-oxo-4-{4-[4-(trifluoromethoxy)phenoxy]piperidin-1-yl}-1,2-dihydroquinoline-3-carbonitrile] | 6.4 |
| CCCCOc1ccc2c(N3CCC(Sc4ccccc4)CC3)c(C#N)c(=O)n(C)c2c1 [Example 69, 7-butoxy-1-methyl-2-oxo-4-[4-(phenylsulfanyl)piperidin-1-yl]-1,2-dihydroquinoline-3-carbonitrile] | 507 |
| Cn1c(=O)c(C#N)c(N2CCC(Oc3ccccc3)CC2)c2ccc(OC3CC3)cc21 [Example 70, 7-(cyclopropyloxy)-1-methyl-2-oxo-4-(4-phenoxypiperidin-1-yl)-1,2-dihydroquinoline-3-carbonitrile] | 17 |
| COc1ccc2c(N3CCC(Oc4ccc(OC(F)(F)F)cc4)CC3)c(C#N)c(=O)n(C)c2c1 [Example 71, 7-methoxy-1-methyl-2-oxo-4-{4-[4-(trifluoromethoxy)phenoxy]piperidin-1-yl}-1,2-dihydroquinoline-3-carbonitrile] | 5.7 |
| Cn1c(=O)c(C#N)c(N2CCC(Oc3cccc(Cl)c3)CC2)c2ccc(C3COC3)cc21 [Example 73, 4-[4-(3-chlorophenoxy)piperidin-1-yl]-1-methyl-7-(oxetan-3-yl)-2-oxo-1,2-dihydroquinoline-3-carbonitrile] | 13 |
| COCCc1ccc2c(N3CCC(Oc4cccc(OC(F)(F)F)c4)CC3)c(C#N)c(=O)n(C)c2c1 [Example 76, 7-(2-methoxyethyl)-1-methyl-2-oxo-4-{4-[3-(trifluoromethoxy)phenoxy]piperidin-1-yl}-1,2-dihydroquinoline-3-carbonitrile] | 6.8 |
| Cn1c(=O)c(C#N)c(N2CCC(Oc3cccc(OC(F)(F)F)c3)CC2)c2ccc(C3COC3)cc21 [Example 77, 1-methyl-7-(oxetan-3-yl)-2-oxo-4-{4-[3-(trifluoromethoxy)phenoxy]piperidin-1-yl}-1,2-dihydroquinoline-3-carbonitrile] | 17 |
| Cn1c(=O)c(C#N)c(N2CCC(Oc3cccc(OC(F)(F)F)c3)CC2)c2ccc(P(C)(C)=O)cc21 [Example 78, 7-(dimethylphosphoryl)-1-methyl-2-oxo-4-{4-[3-(trifluoromethoxy)phenoxy]piperidin-1-yl}-1,2-dihydroquinoline-3-carbonitrile] | 1130 |
| Cn1c(=O)c(C#N)c(N2CCC(Oc3ccc(OC(F)(F)F)cc3)CC2)c2ccc(P(C)(C)=O)cc21 [Example 79, 7-(dimethylphosphoryl)-1-methyl-2-oxo-4-{4-[4-(trifluoromethoxy)phenoxy]piperidin-1-yl}-1,2-dihydroquinoline-3-carbonitrile] | 416 |
| CN1CCN(c2ccc3c(N4CCC(Oc5cccc(Cl)c5)CC4)c(C#N)c(=O)n(C)c3c2)CC1 [Example 80, 4-[4-(3-chlorophenoxy)piperidin-1-yl]-1-methyl-7-(4-methylpiperazin-1-yl)-2-oxo-1,2-dihydroquinoline-3-carbonitrile] | 534 |
| COCCOc1ccc2c(N3CCC(Oc4ccc(OC(F)(F)F)cc4)CC3)c(C#N)c(=O)n(C)c2c1 [Example 81, 7-(2-methoxyethoxy)-1-methyl-2-oxo-4-{4-[4-(trifluoromethoxy)phenoxy]piperidin-1-yl}-1,2-dihydroquinoline-3-carbonitrile] | 3 |
